By IC50 is commonly meant the concentration that gives 50% inhibition.

Results on three compounds are retold here after PMC4474090 (Journal of pharmaceutical sciences, 2012).

The subject of data set [1] is rat adjuvant arthritis model. Format: in vivo.
The next data set deals with KB epithelial cells. The note with it: read-out: toxicity IC50; cited from earlier work.
The test system of data set [2] is rat adjuvant arthritis model. The experiment in a line: Suppression of RA in rat adjuvant arthritis model. The format is in vivo.
For a further data set, the system named is Molt-3 T cells. As to conditions: read-out: cytotoxicity IC50; LFA-1-expressing Molt-3 T cells; cited from earlier work.
Data set [3] deals with ICAM-1/LFA-1-mediated heterotypic T-cell adhesion. The experiment in a line: Inhibition of ICAM-1/LFA-1-mediated heterotypic T-cell adhesion. The format is cell-based. As to conditions: compared with CH7.
Data set [4] has the same test system. The note with it: compared with cIBR; cited from earlier work.
Where [5] appears, read: 0.05 mg/kg i.v. once a day, Day 14.

As to `CN(Cc1cnc2nc(N)nc(N)c2n1)c1ccc(C(=O)N[C@@H](CCC(=O)O)C(=O)O)cc1` [MTX, Methotrexate], in data set [1] (0.05 mg/kg), the “spleen histology: pyogranulomatous inflammation” value was “multi-focal small areas of pyogranulomatous inflammation”. The animal body weight entry in data set [1] (arthritis animals, 0.05 mg/kg, days 0-14) is “lost weight after day 8”. For the same compound, in data set [1] (arthritis rats, 0.05 mg/kg i.v. once a day, Day 14), the “Rat Liver Weight ± SE” value worked out at 6.1289 ± 0.1451 g. Moreover, the IC50 with KB epithelial cells was 27 nM. Moreover, in data set [2] (setting [5]), the “AUC Paw Ankle Diameter ± SE” value is 2.388 ± 0.028, the “Bone Resorption Score ± SE” value was found to be 3.1 ± 0.4 and the “Inflammation Score ± SE” value turned out to be 4.9 ± 0.1. For the same compound, in data set [2] (0.05 mg/kg, day 14, H&E), the “ankle histology: bone resorption” value is “Moderate bone resorption was present across the physis”; the “ankle histology: synovitis and periarticular inflammation” value was “severe synovitis (S) and periarticular inflammation”. For the same compound, the “Paw Weight ± SE” value in data set [2] (arthritis rats, 0.05 mg/kg i.v. once a day day 0-14, Day 14) was determined as 3.5790 ± 0.0877 g. The IC50 with Molt-3 T cells is 61 nM.
As for cyclo(1,6)PRGGKV [CHK7], the “cell adhesion inhibitory activity” value in data set [3] is given as “lower cell adhesion inhibitory activity than the parent CH7”.
For the compound cyclo(1,6)PRGGSV [CH7], the “activity in inhibiting ICAM-1/LFA-1-mediated heterotypic T-cell adhesion” value in data set [4] is “activity comparable to that of cIBR”.
